Experimental data taken from ChEMBL document CHEMBL5649169 (ChemMedChem, 2018).

Columns and labels:
[1] = biological target: Electrogenic aspartate/glutamate antiporter SLC25A13, mitochondrial (Homo sapiens) (UniProt Q9UJS0)
[2] = biological target: Mitochondrial 2-oxodicarboxylate carrier (Homo sapiens) (UniProt Q9BQT8)
[3] = biological target: FAD synthase (Homo sapiens) (UniProt Q8NFF5)
[4] = biological target: Translocon-associated protein subunit delta (Homo sapiens) (UniProt P51571)
[5] = biological target: Small nuclear ribonucleoprotein F (Homo sapiens) (UniProt P62306)
[6] = biological target: ATP synthase F(0) complex subunit 8 (Homo sapiens) (UniProt P03928)
[7] = biological target: Prospero homeobox protein 1 (Homo sapiens) (UniProt Q92786)
[8] = biological target: Nucleolar MIF4G domain-containing protein 1 (Homo sapiens) (UniProt Q5C9Z4)
[9] = biological target: Cytochrome c oxidase assembly protein COX14 (Homo sapiens) (UniProt Q96I36)
[10] = biological target: Ubiquitin-protein ligase E3A (Homo sapiens) (UniProt Q05086)
[11] = biological target: E3 ubiquitin-protein ligase RBX1 (Homo sapiens) (UniProt P62877)
[12] = biological target: Oxysterol-binding protein-related protein 3 (Homo sapiens) (UniProt Q9H4L5)
[13] = biological target: Activator of 90 kDa heat shock protein ATPase homolog 1 (Homo sapiens) (UniProt O95433)
[14] = biological target: La-related protein 7 (Homo sapiens) (UniProt Q4G0J3)
[15] = biological target: Tubulin beta-4A chain (Homo sapiens) (UniProt P04350)
[16] = biological target: Aldo-keto reductase family 1 member D1 (Homo sapiens) (UniProt P51857)
[17] = biological target: 45 kDa calcium-binding protein (Homo sapiens) (UniProt Q9BRK5)
[18] = biological target: Secretory carrier-associated membrane protein 2 (Homo sapiens) (UniProt O15127)
[19] = biological target: Peroxisomal biogenesis factor 3 (Homo sapiens) (UniProt P56589)
[20] = biological target: Heterogeneous nuclear ribonucleoprotein D-like (Homo sapiens) (UniProt O14979)
[21] = biological target: Serine/threonine-protein kinase pim-2 (Homo sapiens) (UniProt Q9P1W9)
[22] = biological target: General transcription factor IIF subunit 2 (Homo sapiens) (UniProt P13984)
[23] = biological target: Very long chain fatty acid elongase 5 (Homo sapiens) (UniProt Q9NYP7)
[24] = biological target: Malate dehydrogenase, cytoplasmic (Homo sapiens) (UniProt P40925)
[25] = biological target: Zinc finger protein with KRAB and SCAN domains 2 (Homo sapiens) (UniProt Q63HK3)
[26] = biological target: STE20-related kinase adapter protein alpha (Homo sapiens) (UniProt Q7RTN6)
[27] = biological target: OCIA domain-containing protein 1 (Homo sapiens) (UniProt Q9NX40)
[28] = biological target: Translation initiation factor eIF2B subunit epsilon (Homo sapiens) (UniProt Q13144)
[29] = biological target: Nucleolar protein 58 (Homo sapiens) (UniProt Q9Y2X3)
[30] = biological target: Protein kinase C zeta type (Homo sapiens) (UniProt Q05513)
[31] = biological target: DnaJ homolog subfamily C member 13 (Homo sapiens) (UniProt O75165)
[32] = biological target: Probable helicase with zinc finger domain (Homo sapiens) (UniProt P42694)
[33] = biological target: Lysosomal alpha-mannosidase (Homo sapiens) (UniProt O00754)
[34] = biological target: Ragulator complex protein LAMTOR3 (Homo sapiens) (UniProt Q9UHA4)
[35] = biological target: Serine/threonine-protein phosphatase 4 regulatory subunit 3A (Homo sapiens) (UniProt Q6IN85)
[36] = biological target: Histone H1.3 (Homo sapiens) (UniProt P16402)
[37] = biological target: Conserved oligomeric Golgi complex subunit 5 (Homo sapiens) (UniProt Q9UP83)
[38] = biological target: Putative uncharacterized protein ZNF436-AS1 (Homo sapiens) (UniProt Q8NC38)
[39] = biological target: Membrane-bound glycerophospholipid O-acyltransferase 1 (Homo sapiens) (UniProt Q6ZNC8)
[40] = biological target: Presenilin-associated rhomboid-like protein, mitochondrial (Homo sapiens) (UniProt Q9H300)
[41] = biological target: E3 ubiquitin-protein ligase listerin (Homo sapiens) (UniProt O94822)
[42] = biological target: Vacuole membrane protein 1 (Homo sapiens) (UniProt Q96GC9)
[43] = biological target: GDP-mannose 4,6 dehydratase (Homo sapiens) (UniProt O60547)
[44] = biological target: Serine/arginine-rich splicing factor 2 (Homo sapiens) (UniProt Q01130)
[45] = biological target: C-1-tetrahydrofolate synthase, cytoplasmic (Homo sapiens) (UniProt P11586)
Note: assay method not described here.

Chain of Activator of 90 kDa heat shock protein ATPase homolog 1 (Homo sapiens) (O95433 whole entry): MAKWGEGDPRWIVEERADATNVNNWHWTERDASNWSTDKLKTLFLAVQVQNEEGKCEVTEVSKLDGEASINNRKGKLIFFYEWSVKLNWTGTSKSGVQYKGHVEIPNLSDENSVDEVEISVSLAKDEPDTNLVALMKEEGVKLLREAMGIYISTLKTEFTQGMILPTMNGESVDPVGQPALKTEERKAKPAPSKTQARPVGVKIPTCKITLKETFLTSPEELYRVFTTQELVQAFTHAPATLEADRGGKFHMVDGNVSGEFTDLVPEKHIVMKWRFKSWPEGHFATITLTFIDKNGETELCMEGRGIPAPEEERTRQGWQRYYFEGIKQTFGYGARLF
Chain of Protein kinase C zeta type (Homo sapiens) (Q05513 whole entry): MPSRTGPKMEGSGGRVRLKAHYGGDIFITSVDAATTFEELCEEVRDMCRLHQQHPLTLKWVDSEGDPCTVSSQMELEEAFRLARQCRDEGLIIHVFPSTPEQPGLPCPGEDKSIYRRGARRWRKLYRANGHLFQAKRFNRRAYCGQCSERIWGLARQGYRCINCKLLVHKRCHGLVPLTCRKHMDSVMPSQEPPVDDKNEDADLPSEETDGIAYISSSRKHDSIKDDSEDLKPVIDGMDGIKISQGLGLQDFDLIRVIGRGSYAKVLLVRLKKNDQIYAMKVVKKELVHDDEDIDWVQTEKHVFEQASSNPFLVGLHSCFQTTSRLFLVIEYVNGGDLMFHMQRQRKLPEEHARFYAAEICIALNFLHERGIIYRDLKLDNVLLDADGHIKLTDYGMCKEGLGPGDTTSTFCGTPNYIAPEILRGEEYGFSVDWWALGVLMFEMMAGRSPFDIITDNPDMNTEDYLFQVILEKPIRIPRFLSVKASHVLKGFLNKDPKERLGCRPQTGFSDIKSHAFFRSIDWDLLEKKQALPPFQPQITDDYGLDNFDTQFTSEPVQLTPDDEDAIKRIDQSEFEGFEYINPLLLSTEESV
Chain of Putative uncharacterized protein ZNF436-AS1 (Homo sapiens) (Q8NC38 whole entry): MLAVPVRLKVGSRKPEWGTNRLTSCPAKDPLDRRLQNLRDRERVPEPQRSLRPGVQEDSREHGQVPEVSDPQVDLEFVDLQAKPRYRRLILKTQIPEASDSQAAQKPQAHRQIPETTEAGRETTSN
Chain of Serine/arginine-rich splicing factor 2 (Homo sapiens) (Q01130 whole entry): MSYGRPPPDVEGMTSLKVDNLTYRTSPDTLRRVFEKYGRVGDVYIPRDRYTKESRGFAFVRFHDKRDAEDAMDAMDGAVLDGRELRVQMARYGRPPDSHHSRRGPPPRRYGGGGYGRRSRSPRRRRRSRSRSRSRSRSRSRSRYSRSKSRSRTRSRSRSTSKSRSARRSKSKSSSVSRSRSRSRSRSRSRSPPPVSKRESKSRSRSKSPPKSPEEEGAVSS
Chain of Heterogeneous nuclear ribonucleoprotein D-like (Homo sapiens) (O14979 whole entry): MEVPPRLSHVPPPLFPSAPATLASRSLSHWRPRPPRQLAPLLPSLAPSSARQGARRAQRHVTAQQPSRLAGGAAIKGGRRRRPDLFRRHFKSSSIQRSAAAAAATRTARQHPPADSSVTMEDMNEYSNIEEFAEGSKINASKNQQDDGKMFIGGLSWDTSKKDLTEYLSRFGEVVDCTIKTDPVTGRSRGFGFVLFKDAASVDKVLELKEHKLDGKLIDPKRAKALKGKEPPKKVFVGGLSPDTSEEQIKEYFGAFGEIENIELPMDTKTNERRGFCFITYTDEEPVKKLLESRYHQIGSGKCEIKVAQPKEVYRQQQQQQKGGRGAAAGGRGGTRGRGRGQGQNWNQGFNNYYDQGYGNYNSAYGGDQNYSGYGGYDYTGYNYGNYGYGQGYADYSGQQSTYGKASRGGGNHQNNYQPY
Chain of Cytochrome c oxidase assembly protein COX14 (Homo sapiens) (Q96I36 whole entry): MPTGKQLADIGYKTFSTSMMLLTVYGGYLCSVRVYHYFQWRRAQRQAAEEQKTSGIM
Chain of Nucleolar protein 58 (Homo sapiens) (Q9Y2X3 whole entry): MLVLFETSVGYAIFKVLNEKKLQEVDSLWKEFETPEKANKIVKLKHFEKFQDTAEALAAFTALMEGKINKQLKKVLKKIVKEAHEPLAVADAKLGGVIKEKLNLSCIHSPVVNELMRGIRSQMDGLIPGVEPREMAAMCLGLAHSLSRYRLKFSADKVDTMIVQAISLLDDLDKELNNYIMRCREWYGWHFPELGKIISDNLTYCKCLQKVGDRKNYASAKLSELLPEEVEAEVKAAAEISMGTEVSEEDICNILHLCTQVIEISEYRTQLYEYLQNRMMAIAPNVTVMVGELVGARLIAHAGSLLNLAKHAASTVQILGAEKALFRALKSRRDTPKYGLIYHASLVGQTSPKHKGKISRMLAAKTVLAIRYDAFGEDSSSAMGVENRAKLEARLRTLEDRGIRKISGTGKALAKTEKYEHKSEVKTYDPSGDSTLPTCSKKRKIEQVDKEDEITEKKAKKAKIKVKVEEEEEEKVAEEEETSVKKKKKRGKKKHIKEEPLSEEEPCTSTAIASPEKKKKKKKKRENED
Chain of GDP-mannose 4,6 dehydratase (Homo sapiens) (O60547 whole entry): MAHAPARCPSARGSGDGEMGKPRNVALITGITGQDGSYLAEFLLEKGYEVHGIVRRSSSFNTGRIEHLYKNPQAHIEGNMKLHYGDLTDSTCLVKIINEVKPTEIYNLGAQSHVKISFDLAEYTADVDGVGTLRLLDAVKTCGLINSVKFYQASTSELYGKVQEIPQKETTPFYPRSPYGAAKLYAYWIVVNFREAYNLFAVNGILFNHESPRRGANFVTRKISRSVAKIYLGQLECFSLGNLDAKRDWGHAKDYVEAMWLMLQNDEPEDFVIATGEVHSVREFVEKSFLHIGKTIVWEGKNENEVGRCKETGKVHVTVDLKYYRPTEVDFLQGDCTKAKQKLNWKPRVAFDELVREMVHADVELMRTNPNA
Chain of Ubiquitin-protein ligase E3A (Homo sapiens) (Q05086 whole entry): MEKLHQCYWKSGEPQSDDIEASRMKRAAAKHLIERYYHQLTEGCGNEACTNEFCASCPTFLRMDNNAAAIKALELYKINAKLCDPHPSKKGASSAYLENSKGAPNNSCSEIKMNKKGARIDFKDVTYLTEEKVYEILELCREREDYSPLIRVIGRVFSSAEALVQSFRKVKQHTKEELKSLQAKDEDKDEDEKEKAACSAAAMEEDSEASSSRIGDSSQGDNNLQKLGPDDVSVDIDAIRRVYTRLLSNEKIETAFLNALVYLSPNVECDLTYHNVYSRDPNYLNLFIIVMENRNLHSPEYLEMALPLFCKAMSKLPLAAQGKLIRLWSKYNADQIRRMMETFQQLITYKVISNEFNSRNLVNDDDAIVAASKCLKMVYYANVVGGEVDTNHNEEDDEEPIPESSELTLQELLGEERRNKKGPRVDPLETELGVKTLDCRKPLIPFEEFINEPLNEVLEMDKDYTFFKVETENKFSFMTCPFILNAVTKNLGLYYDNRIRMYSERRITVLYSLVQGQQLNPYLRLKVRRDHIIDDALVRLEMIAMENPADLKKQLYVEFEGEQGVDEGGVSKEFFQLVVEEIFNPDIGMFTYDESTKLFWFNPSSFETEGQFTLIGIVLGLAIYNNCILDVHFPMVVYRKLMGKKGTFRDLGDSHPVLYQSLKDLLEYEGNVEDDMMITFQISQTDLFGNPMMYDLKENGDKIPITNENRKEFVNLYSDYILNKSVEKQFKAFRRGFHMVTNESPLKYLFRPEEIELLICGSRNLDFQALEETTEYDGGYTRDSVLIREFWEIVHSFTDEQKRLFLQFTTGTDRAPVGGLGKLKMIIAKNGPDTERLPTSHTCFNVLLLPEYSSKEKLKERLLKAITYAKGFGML
Chain of Electrogenic aspartate/glutamate antiporter SLC25A13, mitochondrial (Homo sapiens) (Q9UJS0 whole entry): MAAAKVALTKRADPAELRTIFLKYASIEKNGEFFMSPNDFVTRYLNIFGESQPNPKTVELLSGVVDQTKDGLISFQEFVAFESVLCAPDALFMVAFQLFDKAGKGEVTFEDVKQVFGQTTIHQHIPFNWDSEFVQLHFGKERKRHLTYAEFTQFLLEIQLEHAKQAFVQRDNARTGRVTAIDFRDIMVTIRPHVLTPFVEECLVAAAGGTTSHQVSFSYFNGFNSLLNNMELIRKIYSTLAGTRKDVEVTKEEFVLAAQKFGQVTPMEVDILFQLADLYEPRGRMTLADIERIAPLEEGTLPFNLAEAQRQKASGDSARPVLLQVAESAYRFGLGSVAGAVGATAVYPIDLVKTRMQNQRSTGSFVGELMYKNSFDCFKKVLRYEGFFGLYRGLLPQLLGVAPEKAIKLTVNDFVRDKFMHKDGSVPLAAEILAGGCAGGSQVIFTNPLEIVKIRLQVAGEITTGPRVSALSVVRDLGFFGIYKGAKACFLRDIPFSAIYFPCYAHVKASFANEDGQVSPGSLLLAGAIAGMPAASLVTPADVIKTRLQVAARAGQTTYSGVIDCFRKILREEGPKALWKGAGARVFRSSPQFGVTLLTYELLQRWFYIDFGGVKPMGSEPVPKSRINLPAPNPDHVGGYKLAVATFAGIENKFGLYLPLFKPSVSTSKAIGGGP
Chain of Serine/threonine-protein kinase pim-2 (Homo sapiens) (Q9P1W9 whole entry, looked up): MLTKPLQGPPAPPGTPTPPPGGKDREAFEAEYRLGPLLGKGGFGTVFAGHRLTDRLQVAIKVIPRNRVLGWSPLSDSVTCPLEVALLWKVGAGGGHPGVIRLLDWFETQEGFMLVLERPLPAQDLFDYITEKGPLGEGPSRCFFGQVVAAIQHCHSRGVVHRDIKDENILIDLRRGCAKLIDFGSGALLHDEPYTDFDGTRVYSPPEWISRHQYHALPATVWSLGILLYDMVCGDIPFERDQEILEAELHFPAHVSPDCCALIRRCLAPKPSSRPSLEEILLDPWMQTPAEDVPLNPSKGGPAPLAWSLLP
Chain of 45 kDa calcium-binding protein (Homo sapiens) (Q9BRK5 whole entry): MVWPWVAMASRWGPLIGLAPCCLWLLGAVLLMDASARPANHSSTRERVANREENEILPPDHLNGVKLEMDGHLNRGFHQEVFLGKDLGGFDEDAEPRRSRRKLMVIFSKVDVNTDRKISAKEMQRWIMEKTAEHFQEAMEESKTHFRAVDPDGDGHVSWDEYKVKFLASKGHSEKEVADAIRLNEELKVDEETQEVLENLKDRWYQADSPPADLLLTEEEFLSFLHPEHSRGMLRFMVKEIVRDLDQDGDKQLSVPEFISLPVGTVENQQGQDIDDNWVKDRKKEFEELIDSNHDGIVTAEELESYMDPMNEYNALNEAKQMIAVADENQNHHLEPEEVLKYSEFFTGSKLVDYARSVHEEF

**Q.** `Cc1ccc(C(=O)Nc2cccc(C(F)(F)F)c2)cc1Nc1nc(-c2cccnc2)nc2c1cnn2C` was tested. Which ED50 [1] did it give?
**A.** 1.18 µM

**Q.** And the ED50 [2]?
**A.** 120 µM

**Q.** What about the ED50 [3] of the same compound?
**A.** 0.998 µM

**Q.** What about the ED50 [4] of the same compound?
**A.** 217 µM

**Q.** What about the ED50 [5] of the same compound?
**A.** 143 µM

**Q.** What about the ED50 [6] of the same compound?
**A.** 45.6 µM

**Q.** What about the ED50 [7] of the same compound?
**A.** 6.66 µM

**Q.** What about the ED50 [8] of the same compound?
**A.** 0.00322 µM

**Q.** And the ED50 [9]?
**A.** 0.00496 µM

**Q.** What about the ED50 [10] of the same compound?
**A.** 6.96 µM

**Q.** What about the ED50 [11] of the same compound?
**A.** 2.98 µM

**Q.** And the ED50 (Homo sapiens)?
**A.** 5.36 µM

**Q.** And the ED50 [12]?
**A.** 0.946 µM

**Q.** What about the ED50 [13] of the same compound?
**A.** 44.8 µM

**Q.** And the ED50 [14]?
**A.** 13.7 µM

**Q.** What about the ED50 [15] of the same compound?
**A.** 0.00634 µM

**Q.** And the ED50 [16]?
**A.** 0.0719 µM

**Q.** And the ED50 [17]?
**A.** 0.519 µM

**Q.** What about the ED50 [18] of the same compound?
**A.** 6.77 µM

**Q.** And the ED50 [19]?
**A.** 0.0115 µM

**Q.** What about the ED50 [20] of the same compound?
**A.** 0.0685 µM

**Q.** What about the ED50 [21] of the same compound?
**A.** 12.2 µM

**Q.** And the ED50 [22]?
**A.** 7.69 µM

**Q.** And the ED50 [23]?
**A.** 2.87 µM

**Q.** What about the ED50 [24] of the same compound?
**A.** 91.4 µM

**Q.** And the ED50 [25]?
**A.** 0.932 µM

**Q.** And the ED50 [26]?
**A.** 0.0198 µM

**Q.** What about the ED50 [27] of the same compound?
**A.** 0.00604 µM

**Q.** And the ED50 [28]?
**A.** 5.15 µM

**Q.** What about the ED50 [29] of the same compound?
**A.** 0.0287 µM

**Q.** And the ED50 [30]?
**A.** 6210 µM

**Q.** What about the ED50 [31] of the same compound?
**A.** 10.3 µM

**Q.** What about the ED50 [32] of the same compound?
**A.** 0.00939 µM

**Q.** What about the ED50 [33] of the same compound?
**A.** 83 µM

**Q.** And the ED50 [34]?
**A.** 0.816 µM

**Q.** What about the ED50 [35] of the same compound?
**A.** 0.033 µM

**Q.** And the ED50 [36]?
**A.** 10.4 µM

**Q.** And the ED50 [37]?
**A.** 7.29 µM

**Q.** And the ED50 [38]?
**A.** 8.64 µM

**Q.** And the ED50 [39]?
**A.** 0.9 µM

**Q.** What about the ED50 [40] of the same compound?
**A.** 0.00451 µM

**Q.** Which ED50 [41] does the source give for `Cc1ccc(C(=O)Nc2cccc(C(F)(F)F)c2)cc1Nc1nc(-c2cccnc2)nc2nn(C)cc12` here?
**A.** 0.753 µM

**Q.** What about the ED50 [42] of the same compound?
**A.** 1.93 µM

**Q.** What about the ED50 [43] of the same compound?
**A.** 6770 µM

**Q.** What about the ED50 [44] of the same compound?
**A.** 0.00931 µM

**Q.** And the ED50 [45]?
**A.** 0.0871 µM
